According to ChEMBL document CHEMBL1128083, “The anti-rheumatic potential of a series of 2,4-di-substituted-4H-naphtho[1,2-b]pyran-3-carbonitriles” (Bioorg Med Chem Lett, 1995):

What was measured:
[1] = organism: Oryctolagus cuniculus; test: Tested for percent inhibition of Neutral metalloprotease in rabbit chondrocytes at 1 uM concentration; type: cell-based
[2] = organism: Oryctolagus cuniculus; test: Tested for percent inhibition of Neutral metalloprotease in rabbit chondrocytes at 0.1 uM concentration; type: cell-based
[3] = organism: Oryctolagus cuniculus; test: Tested for percent inhibition of Neutral metalloprotease in rabbit chondrocytes at 10 uM concentration; type: cell-based
[4] = organism: Rattus norvegicus; test: Percent inhibition of Concanavalin A stimulated cell proliferation of rat spleen lymphocytes at 0.1 uM; type: functional
[5] = organism: Rattus norvegicus; test: Percent inhibition of Concanavalin A stimulated cell proliferation of rat spleen lymphocytes at 10 uM; type: functional
[6] = organism: Rattus norvegicus; test: Percent inhibition of Concanavalin A stimulated cell proliferation of rat spleen lymphocytes at 0.01 uM; type: functional
[7] = organism: Rattus norvegicus; test: Percent inhibition of Concanavalin A stimulated cell proliferation of rat spleen lymphocytes at 1 uM; type: functional
[8] = organism: Oryctolagus cuniculus; test: Tested for percent inhibition of Neutral metalloprotease in rabbit chondrocytes at 10 uM concentration; toxic; type: cell-based
[9] = organism: Rattus norvegicus; test: Percent inhibition of Concanavalin A stimulated cell proliferation of rat spleen lymphocytes at 0.001 uM; type: functional
[10] = Half life was evaluated; type: ADME
[11] = organism: Rattus norvegicus; test: Percent reduction in arthritis score was measured in CP-20961 injected rats on day 16; type: functional; set-up: scale not given: the % may be the effect or the level left
[12] = Time at which the maximum concentration is achieved; type: ADME
[13] = Maximum concentration in plasma at Tmax; type: ADME, organism-based
[14] = organism: Rattus norvegicus; test: Percent reduction in arthritis score was measured in CP-20961 injected rats; NR is no reduction; type: functional, organism-based

half-life [10] [h]	Tmax [12] [h]	Cmax [13] [ng/mL]	Compound	inhibition [1] [%]	inhibition [2] [%]	inhibition [3] [%]	inhibition at 0.1 µM [4] [%]	inhibition at 10 µM [5] [%]	inhibition at 0.01 µM [6] [%]	inhibition at 1 µM [7] [%]	inhibition [8] [%]	inhibition at 0.001 µM [9] [%]	Activity [11] [%]	Activity [14]
–	–	–	N#Cc1c(O)nc2c(c1-c1cccc([N+](=O)[O-])c1)CCc1ccccc1-2	3	36	36	–	–	–	–	–	–	–	–
–	–	–	N#CC1=C(N)Oc2c(ccc3ccccc23)C1c1ccc(F)c(Cl)c1 (stereo not drawn)	111	37	–	83	98	38	86	81	–	–	–
–	–	–	N#CC1=C(N)OC2=C(CCc3ccccc32)C1c1cccc([N+](=O)[O-])c1 (stereo not drawn)	76	39	104	87	99	58	95	–	29	–	–
~1	–	–	N#CC1=C(N)Oc2c(ccc3ccccc23)C1c1cccc([N+](=O)[O-])c1 (stereo not drawn)	76	74	102	89	99	73	95	–	33	–	–
–	–	–	N#Cc1c(N)nc2c(c1-c1cccc([N+](=O)[O-])c1)CCc1ccccc1-2	36	8	42	23	46	15	23	–	13	–	–
–	6	5	N#CC1=C(N2C(=O)CCC2=O)Oc2c(ccc3ccccc23)C1c1cccc([N+](=O)[O-])c1 (stereo not drawn)	69	17	86	-4	97	1	87	–	9	48	–
–	–	–	N#CC1C(=O)NC2=C(CCc3ccccc32)C1c1cccc([N+](=O)[O-])c1 (stereo not drawn)	36	-7	20	6	22	8	15	–	9	–	–
–	–	–	O=C1CC(c2cccc([N+](=O)[O-])c2)c2ccc3ccccc3c2O1 (stereo not drawn)	–	–	–	9	15	6	2	–	19	–	–
–	4	178	N#CC1=C(N2C(=O)CCC2=O)Oc2c(ccc3ccccc23)C1c1ccc(F)c(Cl)c1 (stereo not drawn)	53	26	111	10	98	-16	92	–	18	–	No reduction
–	0.5	55	N#CC1=C(N2C(=O)CCC2=O)Oc2c(ccc3ccccc23)C1c1cccnc1 (stereo not drawn)	17	–	25	-5	87	-6	85	–	7	41	–
–	–	–	N#CC1=C(n2cccc2)Oc2c(ccc3ccccc23)C1c1cccc([N+](=O)[O-])c1 (stereo not drawn)	-5	1	4	-7	87	–	82	–	–	–	–
–	–	–	N#CC1=C(N)Oc2c(ccc3ccccc23)C1c1cccnc1 (stereo not drawn)	83	75	100	89	–	11	95	–	0	–	–
